Reference: article PMC8582824, “Targeting DDX3X Helicase Activity with BA103 Shows Promising Therapeutic Effects in Preclinical Glioblastoma Models” (Cancers, 2021)

System: DDX3X
Assay: DDX3X protein expression by Western blot in GBM cells
Assay type: cell-based
Details: 24 h of treatment
Description: Cells were incubated for 15 min in lysis buffer containing 1% triton, 0.1% SDS, 2 mmol/L CaCl2, 10 mg/mL orthovanadate, and 1× protease inhibitors cocktail (Sigma-Aldrich, St. Louis, MO, USA). Forty micrograms of proteins were electrophoresed in 12% SDS-polyacrylamide gel, and then, the gel was placed onto a Trans-Blot Turbo mini nitrocellulose transfer pack and transferred using a Trans-Blot Turbo Transfer System (Bio-Rad Laboratories, Hercules, CA, USA). The membrane was incubated with […] primary antibody and then with […] horseradish peroxidase (HRP)-conjugated secondary antibodies (Santa Cruz Biotechnology, Dallas, TX, USA). […]
To better characterize the antiproliferative effect of BA103, we performed further biological evaluation using GBM cell lines. The expression of DDX3X was evaluated in U87 and U251 cell lines by Western blot analysis in comparison with HepG2 cells, resulting in basally detectable mainly in U87 cells (Figure 6A). […] Thus, also according to the importance of β-catenin signaling in GBM, we analyzed whether the expression of β-catenin in U87 and U251 cells could be associated with DDX3X activity. GBM cells were treated with BA103 for 48 h, and then, β-catenin expression was evaluated by Western blot analysis and immunofluorescence analysis (Figure 7A,B, respectively). […]

With `CCCCc1cn(-c2ccc(NC(=O)Nc3ccccc3C(F)(F)F)cc2)nn1` [BA103, 1-(4-(4-Butyl-1H-1,2,3-triazol-1-yl)phenyl)-3-(2-(trifluoromethyl)phenyl)urea] as the compound, how does the “expression of DDX3X” value read?
Its value is “reduction in the expression of DDX3X”.
